Question: For Oc1c(CN2CCCC2)cc(Nc2ccccn2)cc1CN1CCCC1, which melting point is on record?
Answer: 158 to 159 °C

Question: Which melting point does the source give for O=C1C(=C2C=Cc3ccccc3C2)CCCC1=C1C=Cc2ccccc2C1 here?
Answer: 176 °C

Question: With Cn1c(=O)cc(N)n(-c2ccc(Cl)cc2Cl)c1=O as the compound, how does the melting point read?
Answer: 249 to 251 °C

Question: For N#CC=Cc1ccc(F)cc1, which melting point is on record?
Answer: 64 to 65 °C

Question: For COc1cnc(C(O)Cc2c(Cl)cncc2Cl)cc1OC1CCCC1 (stereo not given), which melting point is on record?
Answer: 110 to 112 °C

Question: Which melting point does the source give for COc1ccc2nc(COc3ccc(NC(C)=O)cc3)sc2c1 here?
Answer: 145 to 147 °C

Question: For Cn1cc(-c2ccccc2)c(=O)c(-c2ccc(C(F)(F)F)cc2)c1, which melting point is on record?
Answer: 164 to 166 °C

Question: Which melting point does the source give for COC(=O)c1ccc(-c2cccc(CO)c2)cc1 here?
Answer: 88 to 89 °C

Question: Which melting point does the source give for Nc1sc2c(c1C(=O)c1ccc(Cl)c3ccccc13)CCC2 here?
Answer: 258 to 260 °C

Question: Which melting point does the source give for CC1(C)SCN(CCCCN2CCN(c3n[nH]c4cc(F)ccc34)CC2)C1=O here?
Answer: 123 to 125 °C

Question: Which melting point does the source give for O=C1C(CCC(O)c2ccc(F)cc2)C(c2ccc(-c3ccc(O)cc3)cc2)N1c1ccc(F)cc1 (stereo not given) here?
Answer: 110 °C

Question: Which melting point does the source give for COc1cc(C(C)O)c(F)cc1Cl (stereo not given) here?
Answer: 68.5 to 69.5 °C

Question: Which melting point does the source give for CCOC(=O)c1cc2c(nc1C)C(=Cc1ccc(OC(C)=O)cc1)CCC2 here?
Answer: 112 °C

Question: For COC(=O)Nc1nc2cc(C(c3ccc(F)cc3)n3cncn3)ccc2[nH]1 (stereo not given), which melting point is on record?
Answer: 250 °C

Question: For Cc1cccc(C)c1N1CCCNC1=S, which melting point is on record?
Answer: 249 to 251 °C

Question: For Nc1ccc(S(=O)(=O)NCCCN2CCOCC2)cc1, which melting point is on record?
Answer: 96 to 97 °C

Question: For COc1cccc([C@H](O)C[C@@H]2CCCN2C)c1 (relative stereo), which melting point is on record?
Answer: 79 to 82 °C

Question: With O=C1CCCN1S(=O)(=O)c1ccc2ccccc2c1 as the compound, how does the melting point read?
Answer: 118 to 120 °C

Question: For Nc1cccnc1-c1ccc2[nH]nc(Nc3nccs3)c2c1, which melting point is on record?
Answer: 282 to 283 °C

Question: For COc1cc2ncnc(N3CCN(C(=O)NCc4cccnc4)CC3)c2cc1OC, which melting point is on record?
Answer: 188 to 189 °C

Question: Which melting point does the source give for COc1cc(CCN2CCC[C@H](C(C#N)(c3ccccc3)c3ccccc3)C2)ccc1O here?
Answer: 159 to 160 °C

Question: With O=C1NCCc2c(-c3cccc(Cl)c3)[nH]c3cccc1c23 as the compound, how does the melting point read?
Answer: 147 to 149 °C

Question: With O=C(O)Cn1nnc(-c2ccc3c(c2)S(=O)(=O)c2ccccc2C3=O)n1 as the compound, how does the melting point read?
Answer: 194 to 195 °C

Question: With O=C(O)c1cn(-c2cnsn2)c2nc(Cl)c(F)cc2c1=O as the compound, how does the melting point read?
Answer: 222 to 223 °C

Question: With COc1cc2c(cc1O)CCN(C(=O)NCCN(C(C)C)C(C)C)C2c1ccccc1 (stereo not given) as the compound, how does the melting point read?
Answer: 91 to 92 °C

Question: With O=C(O)c1cc(S(=O)(=O)c2ccccc2)ccc1[N+](=O)[O-] as the compound, how does the melting point read?
Answer: 210 to 212 °C

Question: With C[C@@H](N1CCN(c2ccc(OC(F)(F)C(F)F)cc2)C1=O)[C@@]1(c2ccccc2F)CO1 as the compound, how does the melting point read?
Answer: 148 to 149 °C

Question: With O=C1Nc2ccccc2CCC1(Cl)Cl as the compound, how does the melting point read?
Answer: 185 to 187 °C

Question: With CCCCn1nc(C(C)=O)nc1Cc1ccc(-c2ccccc2-c2nnn[nH]2)nc1 as the compound, how does the melting point read?
Answer: 157 to 159 °C

Question: For COc1cc(C)c([N+](=O)[O-])cc1C(=O)NCC1CCCO1 (stereo not given), which melting point is on record?
Answer: 178 to 180 °C

Question: With CCOC(=O)c1cn(C2CC2)c2c(C)c(F)c(F)cc2c1=O as the compound, how does the melting point read?
Answer: 220 to 221 °C

Question: With CC(C(O)CCc1ccc(OC(F)(F)F)cc1)n1cncn1 (stereo not given) as the compound, how does the melting point read?
Answer: 69 °C

Question: For CCCn1cnc2c1c1nnc(-c3ccncc3)n1c(=O)n2CCC, which melting point is on record?
Answer: 194 to 199 °C

Question: Which melting point does the source give for Cc1ccc(C2c3c(C)c(NC(=O)OC(C)(C)C)c(C)c(C)c3OC2(C)C)cc1 (stereo not given) here?
Answer: 124 to 125 °C

Question: Which melting point does the source give for CCc1nnc2c(N(CC)CC)nc3cc(Cl)c(Cl)cc3n12 here?
Answer: 147 to 149 °C

Question: For Nc1nc(-c2cc(Cl)ccc2Cl)nc(N(CCO)CCO)n1, which melting point is on record?
Answer: 199 to 200 °C

Question: For Cc1c(CCC#N)c2c(c(C(C)C)c1OCc1ccccc1)CC(C)(C)O2, which melting point is on record?
Answer: 158 to 159 °C

Question: Which melting point does the source give for Cc1ccc2sc(S(=O)(=O)c3cn[nH]c(=O)c3)cc2c1 here?
Answer: 240 to 242 °C

Question: Which melting point does the source give for C#Cc1cnc(OCCC)c(-c2nc3c(CC)n(C4CCN(C(=O)OC(C)(C)C)CC4)nc3c(=O)[nH]2)c1 here?
Answer: 221 °C

Question: For O=[N+]([O-])c1cc(Br)ccc1-c1ccc(F)cc1F, which melting point is on record?
Answer: 52 to 53 °C

Question: With O=C(NC1(C(=O)O)CC1)OCCOC(=O)C1CCCCC1 as the compound, how does the melting point read?
Answer: 124 to 125 °C

Question: For Cc1nc2c3c(ccc2n1C)C(=O)CC(c1ccccc1)O3 (stereo not given), which melting point is on record?
Answer: 201 to 202 °C

Question: Which melting point does the source give for CCCCCCC(NS(=O)(=O)c1ccc(Cl)cc1)C(=O)Nc1ccc(CC(=O)O)cc1 (racemic) here?
Answer: 192 to 193 °C

Question: With CC(C)C(NC(=O)N1CCc2cc(S(=O)(=O)N3CCN(c4cccc(Cl)c4)CC3)ccc21)C(=O)O (stereo not given) as the compound, how does the melting point read?
Answer: 185 to 186 °C

Question: For Nc1cc(F)c(Sc2ccc(C(F)(F)F)cc2Cl)cc1F, which melting point is on record?
Answer: 95.9 °C

Question: Which melting point does the source give for CCOC(=O)CCc1cc(-c2ccccc2)n(-c2ccc(S(C)(=O)=O)cc2)n1 here?
Answer: 96.5 to 99.1 °C

Question: Which melting point does the source give for COc1c(C)cnc(Cn2cc(C#CCC(C)(C)O)c3c(Cl)nc(N)nc32)c1C here?
Answer: 163 to 165 °C

Question: With COc1ccc(CN2CCC(c3cn(Cc4ccoc4)c4ncccc34)CC2)cc1C(=O)O as the compound, how does the melting point read?
Answer: 230 to 232 °C

Question: For O=C1CC[C@@H]([N+](=O)[O-])[C@H](c2ccccc2)N1 (relative stereo), which melting point is on record?
Answer: 174 to 175 °C

Question: With Cc1cccc(OC(=O)C(=O)Oc2cccc(C)c2)c1 as the compound, how does the melting point read?
Answer: 101 to 103 °C

Question: With COc1c(C)c(C)c(OC)c(CC/C(C)=C/CO)c1C as the compound, how does the melting point read?
Answer: 46 °C

Question: For CCCc1c(OCCCS(=O)(=O)c2c(C(C)C)nn3ccccc23)ccc(C(C)=O)c1O, which melting point is on record?
Answer: 170 °C

Question: For O=C(O)C1=Cc2ccccc2SC1C(F)(F)F (stereo not given), which melting point is on record?
Answer: 187 to 190 °C

Question: Which melting point does the source give for CC(CI)CCCC(C)C1CC=C2C3=C(CCC21C)C1(C)CCC(O)C(C)(C)C1CC3 (stereo not given) here?
Answer: 148 °C

Question: For COc1ccc(S(=O)(=O)C(C)(Cc2ccc(-c3ccccc3)cc2)C(=O)O)cc1 (stereo not given), which melting point is on record?
Answer: 161 °C

Question: With Nc1ccc(N2C(=O)c3cccc([N+](=O)[O-])c3C2=O)cc1 as the compound, how does the melting point read?
Answer: 177 °C

Question: For Cc1ccc(C(=Cc2nnnn2C)c2ccc(C)cc2C)c(C)c1, which melting point is on record?
Answer: 143 to 144 °C

Question: With Cc1cc(SC2=C(O)CC(CCc3ccsc3)(C(C)C)OC2=O)c(C(C)(C)C)cc1CO (stereo not given) as the compound, how does the melting point read?
Answer: 63 to 70 °C

Question: With CCOC(=O)c1cn(CC)c2c(=O)c3cc(Cl)ccc3oc2c1=O as the compound, how does the melting point read?
Answer: 257 to 259 °C

Question: With COC(=O)c1ccc(O)c(C(=O)CC(=O)C=Cc2ccccc2)c1 as the compound, how does the melting point read?
Answer: 138 to 140 °C

Question: For O=C(Nc1cccc(CN2C(=O)[C@H]3CCC[C@H]3N(C(=O)CN3C(=O)c4ccccc4C3=O)c3ccccc32)c1)OCc1ccccc1 (relative stereo), which melting point is on record?
Answer: 224 to 225 °C

Question: Which melting point does the source give for CCOC1CN(Cc2cc(OC)c(OC)c(OC)c2)Cc2cc(OC)c(O)cc21 (stereo not given) here?
Answer: 94 to 96 °C

Question: With CCC1c2cccn2-c2ccccc2N1S(=O)(=O)c1ccc(OC)c(C)c1 (stereo not given) as the compound, how does the melting point read?
Answer: 124 to 126 °C

Question: With COc1cccc(N2CCN(CC(O)COC(c3ccccc3)c3cccc4ccccc34)CC2)c1 (stereo not given) as the compound, how does the melting point read?
Answer: 84 °C

Question: Which melting point does the source give for COc1ccc2c(Cl)nc(C(=O)NCCO)c(O)c2c1 here?
Answer: 117 to 119 °C

Question: Which melting point does the source give for O=C1NCCN1C1CCN(CCC2COc3cc(Cl)c(Cl)cc3O2)CC1 (stereo not given) here?
Answer: 85 to 90 °C

Question: For COC(=O)N1CCc2ccc(C(=O)CCC3CCN(C(=O)c4ccccc4)CC3)cc2CC1, which melting point is on record?
Answer: 120 to 123 °C

Question: With C=CCc1cc(Br)ccc1OCC(=O)OCC as the compound, how does the melting point read?
Answer: 70.5 °C

Question: For C[C@@H](O)[C@H]1C(=O)N(CC(=O)OC(C)(C)C)[C@@H]1C(=O)OC(C)(C)C, which melting point is on record?
Answer: 79 to 81 °C

Question: Which melting point does the source give for CC(C)(C)OC(=O)N1CCCC(c2nc3c(N[C@H]4[C@@H](C(N)=O)[C@@H]5C=C[C@H]4C5)ccnc3[nH]2)C1 (stereo not given in full) here?
Answer: 222 to 225 °C

Reference: a melting point compilation (Tetko et al.; mined from patent text by program, amines drawn as free bases though some values may be those of a salt)
